Assay results taken from ChEMBL document CHEMBL1124733, “Synthesis and cardiac electrophysiological activity of N-substituted-4-(1H-imidazol-1-yl)benzamides--new selective class III agents” (J Med Chem, 1990).
Where “and” joins values, the source holds several entries; their conditions need not be identical. Equal values may be shown once.

How the values were obtained:
[1] = species: Canis familiaris; test: Maximum observed percent change in action potential duration (APD) at 95% repolarization at 100 uM using standard microelectrode technique in isolated canine cardiac Purkinje fibers; assay type: functional, Canis lupus familiaris, Purkinje fiber
[2] = species: Canis familiaris; test: Concentration which caused a 20% increase in AP95 was determined.; assay type: functional, Canis lupus familiaris
[3] = Maximum observed percent change in Vmax and the concentration at which it was observed was determined at 100 uM; assay type: ADME
[4] = species: Canis familiaris; test: Percent change in action potential duration at 95% repolarization and 10 uM in isolated canine cardiac Purkinje fibres.; assay type: functional, Canis lupus familiaris, Purkinje fiber
[5] = Percent change in the Vmax at a 10 uM concentration of the test compound; Minimal; assay type: ADME
[6] = species: Canis familiaris; test: Concentration which caused a 20% increase in AP95 was determined.; Not reached; assay type: functional; conditions: Canis lupus familiaris
[7] = Maximum observed percent change in Vmax and the concentration at which it was observed was determined at 30 uM; Minimal; assay type: ADME
[8] = species: Canis familiaris; test: Maximum observed percent change in action potential duration (APD) at 95% repolarization at 30 uM using standard microelectrode technique in isolated canine cardiac Purkinje fibers; assay type: functional, Canis lupus familiaris, Purkinje fiber
[9] = Maximum observed percent change in Vmax and the concentration at which it was observed was determined at 10 uM; Minimal; assay type: ADME
[10] = species: Canis familiaris; test: Maximum observed percent change in action potential duration (APD) at 95% repolarization at 10 uM using standard microelectrode technique in isolated canine cardiac Purkinje fibers; assay type: functional, Canis lupus familiaris, Purkinje fiber
[11] = Maximum observed percent change in Vmax and the concentration at which it was observed was determined at 10 uM; assay type: ADME
[12] = Maximum observed percent change in Vmax and the concentration at which it was observed was determined at 100 uM; Minimal; assay type: ADME
[13] = Maximum observed percent change in Vmax and the concentration at which it was observed was determined at M[30] uM; Minimal; assay type: ADME
[14] = Percent change in the Vmax at a 10 uM concentration of the test compound; assay type: ADME
[15] = species: Canis familiaris; test: Maximum observed percent change in action potential duration (APD) at 95% repolarization at 1 uM using standard microelectrode technique in isolated canine cardiac Purkinje fibers; assay type: functional, Canis lupus familiaris, Purkinje fiber
[16] = Maximum observed percent change in Vmax and the concentration at which it was observed was determined at 50 uM; Minimal; assay type: ADME
[17] = system: Canis familiaris; test: Percent change in heart rate from control at 30 mg/kg, id; assay type: functional, Canis lupus familiaris; conditions: route intraduodenal
[18] = system: Canis familiaris; test: Percent change in heart rate from control at 10 mg/kg, id; assay type: functional, Canis lupus familiaris; conditions: route intraduodenal
[19] = system: Canis familiaris; test: Effective dose with the number of animals in PES efficacy model of anesthetized dog; Not effective in one animal; assay type: functional, Canis lupus familiaris
[20] = system: Canis familiaris; test: Percent change in heart rate from control at 3 mg/kg, iv; assay type: functional, Canis lupus familiaris
[21] = system: Canis familiaris; test: Number of animals in which sustained ventricular tachycardia or ventricular fibrillation was not inducible after drug administration among the number of animals tested (5) in PES efficacy model of anesthetized dog; assay type: functional, Canis lupus familiaris, Cardiac ventricle
[22] = system: Canis familiaris; test: In vivo electrophysiology was given as change in Function refractory period at 3 mg/kg, iv; assay type: functional, Canis lupus familiaris
[23] = system: Canis familiaris; test: In vivo electrophysiology was given as change in Function refractory period at 30 mg/kg, id; assay type: functional, Canis lupus familiaris; conditions: route intraduodenal
[24] = system: Canis familiaris; test: In vivo electrophysiology was given as change in Function refractory period at 10 mg/kg, id; assay type: functional, Canis lupus familiaris; conditions: route intraduodenal
[25] = system: Canis familiaris; test: Effective dose with the number of animals in PES efficacy model of conscious dog; Not effective in one animal; assay type: functional, Canis lupus familiaris
[26] = system: Canis familiaris; test: Number of animals in which sustained ventricular tachycardia or ventricular fibrillation was not inducible after drug administration among the number of animals tested (9) in PES efficacy model of anesthetized dog; assay type: functional, Canis lupus familiaris, Cardiac ventricle
[27] = species: Canis familiaris; test: Concentration which caused a 20% increase in AP95 was determined. Lowest and highest values given in brackets; not reached; assay type: functional; conditions: Canis lupus familiaris
[28] = species: Canis familiaris; test: Maximum observed percent change in action potential duration (APD) at 95% repolarization at 3 uM using standard microelectrode technique in isolated canine cardiac Purkinje fibers; assay type: functional, Canis lupus familiaris, Purkinje fiber
[29] = system: Canis familiaris; test: Effective dose with the number of animals in PES efficacy model of conscious dog; Not effective in two animals; assay type: functional, Canis lupus familiaris
[30] = system: Canis familiaris; test: Number of animals in which sustained ventricular tachycardia or ventricular fibrillation was not inducible after drug administration among the number of animals tested (6) in PES efficacy model of anesthetized dog; assay type: functional, Canis lupus familiaris, Cardiac ventricle
[31] = system: Canis familiaris; test: Number of animals in which sustained ventricular tachycardia or ventricular fibrillation was not inducible after drug administration among the number of animals tested (4) in PES efficacy model of anesthetized dog; assay type: functional, Canis lupus familiaris, Cardiac ventricle
[32] = system: Canis familiaris; test: Effective dose with the number of animals in PES efficacy model of anesthetized dog; assay type: functional, Canis lupus familiaris
[33] = system: Canis familiaris; test: Effective dose with the number of animals in PES efficacy model of conscious dog; assay type: functional, Canis lupus familiaris
[34] = Maximum observed percent change in Vmax and the concentration at which it was observed was determined; Minimal; assay type: ADME

Row | Delta Vmax [5] | max Delta Vmax [7] | max Delta Vmax [12] | SMILES | Max delta APD95 [1] | C20 APD95 [2] | Delta APD95 [4] | C20 APD95 [6] | Max delta APD95 [8] | Max delta APD95 [10] | further results
1 | Minimal | – | – | CCN(CC)CCNC(=O)c1ccc(-c2ncc[nH]2)cc1.Cl.Cl | 31% | 65 µM | 7% | – | – | – | max Delta Vmax [3]: -14%
2 | Minimal | – | – | O=C(c1ccc(-n2ccnc2)cc1)N1CCNCC1 | – | 10.5 µM | 17% | Not reached | 28% | – | Max delta [7]: Minimal
3 | – | – | – | CCN(CC)CCCNC(=O)c1ccc(-n2ccnc2)cc1.Cl.Cl | – | 3 µM | 40% | – | 48% | – | –
4 | Minimal | Minimal | – | CN1CCN(C(=O)c2ccc(-n3ccnc3)cc2)CC1.Cl.Cl | – | 3.7 µM | 32% | – | 55% | 31% | max Delta Vmax [9]: Minimal
5 | Minimal | – | Minimal | CN1CCN(S(=O)(=O)c2ccc(-n3ccnc3)cc2)CC1 | – | 39 µM | 9% | Not reached | 14% | 24% | max Delta Vmax [11]: -23%
6 | Minimal | – | Minimal | CCN(CC)CCNC(=O)c1ccc(-n2ccnc2C)cc1.CS(=O)(=O)O | 16% | – | 4% | Not reached | – | 13% | max Delta Vmax [13]: Minimal
7 | – | -31% | – | CCN(CC)CCN(C(=O)c1ccc(-n2ccnc2)cc1)c1cccc2ccccc12 | – | 0.4 µM | 28% | Not reached | – | 46% | Delta Vmax [14]: -14%; Max delta APD95 [15]: 39% and 18% and 24%
8 | Minimal | Minimal | – | CCN(CC)CCN(Cc1ccccc1)C(=O)c1ccc(-n2ccnc2)cc1 | – | 0.5 µM | 65% | – | 65% | – | –
9 | Minimal | – | – | Cl.O=C(NCCNCc1ccccc1)c1ccc(-n2ccnc2)cc1 | 59% | 1.2 µM | 41% | – | – | 41% | max Delta Vmax [16]: Minimal; max Delta Vmax [3]: -11%
10 | Minimal | Minimal | – | CS(=O)(=O)O.O=C(c1ccc(-n2ccnc2)cc1)N1CCN(Cc2ccccc2)CC1 | – | 0.9 µM | 46% | – | – | 46% | –
11 | Minimal | Minimal | Minimal | CCN(CC)CCNC(=O)c1ccc(NS(C)(=O)=O)cc1.Cl [SEMATILIDE HYDROCHLORIDE] | 65% | 4.4 µM | 31% | – | 51% | – | HR [17]: -17; HR [18]: -17; Effective dose [19]: 3 mg/kg; HR [20]: -23; No. effective [21]: 4; FRP [22]: 19%; FRP [23]: 18%; FRP [24]: 15%; Effective dose [25]: 10 mg/kg; No. effective [26]: 8
12 | Minimal | – | – | O=C(NC1CCNCC1)c1ccc(-n2ccnc2)cc1 | – | – | 5% | – | – | – | Max delta [7]: Minimal; C20 APD95 [27]: Not reached; Max delta APD95 [28]: 10%
13 | Minimal | Minimal | – | O=C(NC1CCN(Cc2ccccc2)CC1)c1ccc(-n2ccnc2)cc1 | – | 0.7 µM | 75% | – | 97% | – | –
14 | – | – | Minimal | CCN1CCCC1CNC(=O)c1ccc(-n2ccnc2)cc1.Cc1ccc(S(=O)(=O)O)cc1 (stereo not given) | 72% | 3 µM | 39% | – | – | – | max Delta Vmax [3]: -26%; Delta Vmax [14]: -13%
15 | Minimal | Minimal | Minimal | CCN(CC)CCNC(=O)c1ccc(-n2ccnc2)cc1.Cl.Cl | 56% | 2.9 µM | 34% | – | 52.5% | – | HR [17]: -29; HR [18]: -15; Effective dose [19]: 10 mg/kg; Effective dose [29]: 3 mg/kg; No effective/ no. tested [30]: 4; HR [20]: -18; FRP [22]: 13%; No. effective [31]: 3; Effective dose [32]: 1 mg/kg; Effective dose [33]: 0.3 mg/kg; FRP [23]: 19%; FRP [24]: 12%
16 | Minimal | – | – | Cl.NCCNC(=O)c1ccc(-n2ccnc2)cc1 | 13% | – | 1% | Not reached | – | 10% | max Delta Vmax [34]: Minimal
17 | Minimal | Minimal | Minimal | CCN(CC)CCNC(=O)c1cccc(-n2ccnc2)c1.Cl.Cl | – | 4 µM | 27% | – | 60% | 50% | –
18 | Minimal | Minimal | – | O=C(NCCN(Cc1ccccc1)Cc1ccccc1)c1ccc(-n2ccnc2)cc1 | – | – | 6% | Not reached | 6.5% | – | –

Row | SMILES | Delta Vmax [5] | max Delta Vmax [7] | max Delta Vmax [12] | Max delta APD95 [1] | C20 APD95 [2] | Delta APD95 [4] | C20 APD95 [6] | Max delta APD95 [8] | Max delta APD95 [10] | further results
19 | CCN(CC)[C@H]1CCCCC1NC(=O)c1ccc(-n2ccnc2)cc1.Cl (stereo not given in full) | Minimal | – | – | 85% | 1.2 µM | 60% | – | – | – | Max delta [3]: -46%
